Data as given in ChEMBL document CHEMBL3991601, “The target landscape of clinical kinase drugs” (Science, 2017).
The source made the active and inactive calls.

What was measured:
[1] = target: Mitogen-activated protein kinase 8 (Homo sapiens, UniProt P45983)
[2] = target: T1, Mitogen-activated protein kinase 15 (Homo sapiens, UniProt Q8TD08)
T1 sequence (Q8TD08 whole entry): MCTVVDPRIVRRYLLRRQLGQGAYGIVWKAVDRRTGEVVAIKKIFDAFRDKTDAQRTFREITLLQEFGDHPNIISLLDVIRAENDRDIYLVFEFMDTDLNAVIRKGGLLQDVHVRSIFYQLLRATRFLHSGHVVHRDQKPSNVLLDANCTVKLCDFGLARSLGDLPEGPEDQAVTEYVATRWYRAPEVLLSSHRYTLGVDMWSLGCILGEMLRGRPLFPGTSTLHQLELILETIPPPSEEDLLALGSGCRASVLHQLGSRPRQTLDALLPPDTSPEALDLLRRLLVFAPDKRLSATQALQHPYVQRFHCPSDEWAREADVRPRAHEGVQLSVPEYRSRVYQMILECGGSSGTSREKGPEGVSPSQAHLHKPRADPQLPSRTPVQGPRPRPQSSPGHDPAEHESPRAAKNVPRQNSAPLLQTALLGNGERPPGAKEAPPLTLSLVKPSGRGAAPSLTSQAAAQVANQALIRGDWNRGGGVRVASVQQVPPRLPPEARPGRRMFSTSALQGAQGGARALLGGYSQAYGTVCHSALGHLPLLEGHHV

[3] = target: Cyclin-dependent kinase 12 (Homo sapiens, UniProt Q9NYV4)
[4] = target: T2, Serine/threonine-protein kinase D2 (Homo sapiens, UniProt Q9BZL6)
T2 sequence (Q9BZL6 whole entry): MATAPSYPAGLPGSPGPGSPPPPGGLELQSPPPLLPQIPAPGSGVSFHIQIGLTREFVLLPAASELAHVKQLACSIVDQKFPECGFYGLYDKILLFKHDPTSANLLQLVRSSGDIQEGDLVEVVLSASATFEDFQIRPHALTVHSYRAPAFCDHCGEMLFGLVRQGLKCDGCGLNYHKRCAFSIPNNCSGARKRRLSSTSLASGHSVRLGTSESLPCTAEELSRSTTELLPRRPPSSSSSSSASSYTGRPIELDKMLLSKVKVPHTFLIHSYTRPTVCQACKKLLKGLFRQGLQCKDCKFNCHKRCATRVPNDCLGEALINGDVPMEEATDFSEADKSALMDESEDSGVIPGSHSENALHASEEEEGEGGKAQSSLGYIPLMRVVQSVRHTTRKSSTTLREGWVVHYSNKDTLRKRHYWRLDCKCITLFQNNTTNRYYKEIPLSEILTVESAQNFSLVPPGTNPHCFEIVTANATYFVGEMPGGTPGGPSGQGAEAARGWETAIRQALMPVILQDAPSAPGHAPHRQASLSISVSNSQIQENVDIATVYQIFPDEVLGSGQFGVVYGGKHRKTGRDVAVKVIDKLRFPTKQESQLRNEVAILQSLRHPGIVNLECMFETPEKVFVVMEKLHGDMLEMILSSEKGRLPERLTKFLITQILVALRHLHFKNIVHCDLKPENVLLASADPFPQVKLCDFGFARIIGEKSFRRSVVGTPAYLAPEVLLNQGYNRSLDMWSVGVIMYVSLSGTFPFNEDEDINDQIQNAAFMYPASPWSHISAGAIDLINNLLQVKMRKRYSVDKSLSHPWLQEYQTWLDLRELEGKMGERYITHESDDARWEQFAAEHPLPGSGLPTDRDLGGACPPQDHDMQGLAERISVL

[5] = target: RAC-gamma serine/threonine-protein kinase (Homo sapiens, UniProt Q9Y243)
[6] = target: Mitogen-activated protein kinase 3 (Homo sapiens, UniProt P27361)
[7] = target: T3, Cysteine--tRNA ligase, cytoplasmic (Homo sapiens, UniProt P49589)
T3 sequence (P49589 whole entry): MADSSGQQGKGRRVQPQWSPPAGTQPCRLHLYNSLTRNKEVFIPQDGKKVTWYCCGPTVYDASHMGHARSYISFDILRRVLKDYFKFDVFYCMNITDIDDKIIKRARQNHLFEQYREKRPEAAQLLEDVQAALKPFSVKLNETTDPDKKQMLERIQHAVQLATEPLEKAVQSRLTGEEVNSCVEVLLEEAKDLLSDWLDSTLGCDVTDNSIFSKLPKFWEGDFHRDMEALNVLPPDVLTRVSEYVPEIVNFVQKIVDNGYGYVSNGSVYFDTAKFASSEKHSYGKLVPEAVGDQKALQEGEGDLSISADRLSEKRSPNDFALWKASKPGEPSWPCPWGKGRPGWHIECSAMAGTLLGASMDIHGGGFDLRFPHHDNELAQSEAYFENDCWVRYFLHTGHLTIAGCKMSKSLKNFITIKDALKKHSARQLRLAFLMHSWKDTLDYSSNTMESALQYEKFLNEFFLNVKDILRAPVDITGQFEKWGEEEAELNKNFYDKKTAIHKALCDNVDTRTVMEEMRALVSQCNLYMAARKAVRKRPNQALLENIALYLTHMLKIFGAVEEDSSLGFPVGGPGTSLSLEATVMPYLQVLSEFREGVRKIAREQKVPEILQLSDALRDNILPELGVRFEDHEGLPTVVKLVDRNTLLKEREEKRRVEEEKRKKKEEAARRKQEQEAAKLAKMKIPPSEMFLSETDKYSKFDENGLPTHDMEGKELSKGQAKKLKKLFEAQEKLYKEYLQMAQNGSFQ

Obg-like ATPase 1 = Obg-like ATPase 1 (Homo sapiens, UniProt Q9NTK5)
[8] = target: Dual specificity mitogen-activated protein kinase kinase 2 (Homo sapiens, UniProt P36507)
[9] = target: Mitogen-activated protein kinase 7 (Homo sapiens, UniProt Q13164)
Further: in the data inactive means no Kd found up to 30 µM.

Chain of Obg-like ATPase 1 (Q9NTK5 whole entry, looked up): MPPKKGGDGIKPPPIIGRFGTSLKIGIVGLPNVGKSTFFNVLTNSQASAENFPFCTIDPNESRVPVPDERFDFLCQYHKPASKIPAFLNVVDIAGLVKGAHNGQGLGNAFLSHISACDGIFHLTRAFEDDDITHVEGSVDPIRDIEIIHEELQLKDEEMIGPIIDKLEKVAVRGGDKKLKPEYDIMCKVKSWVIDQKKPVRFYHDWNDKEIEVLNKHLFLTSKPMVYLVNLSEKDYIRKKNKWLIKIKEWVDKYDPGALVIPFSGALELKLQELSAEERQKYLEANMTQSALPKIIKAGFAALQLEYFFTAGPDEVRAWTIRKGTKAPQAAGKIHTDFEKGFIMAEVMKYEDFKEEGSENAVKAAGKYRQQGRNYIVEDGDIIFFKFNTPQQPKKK
Chain of Mitogen-activated protein kinase 3 (P27361 whole entry): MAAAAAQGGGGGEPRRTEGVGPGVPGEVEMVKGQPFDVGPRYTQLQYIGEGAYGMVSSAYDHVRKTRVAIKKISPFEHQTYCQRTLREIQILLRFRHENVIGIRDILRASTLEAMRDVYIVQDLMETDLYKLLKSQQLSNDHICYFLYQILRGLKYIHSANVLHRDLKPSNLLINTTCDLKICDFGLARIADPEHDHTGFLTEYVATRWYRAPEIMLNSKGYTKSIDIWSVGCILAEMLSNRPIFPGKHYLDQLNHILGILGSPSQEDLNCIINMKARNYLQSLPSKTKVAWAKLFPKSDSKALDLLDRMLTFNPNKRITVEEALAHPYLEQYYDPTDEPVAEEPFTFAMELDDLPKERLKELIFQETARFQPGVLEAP
Chain of Cyclin-dependent kinase 12 (Q9NYV4 whole entry): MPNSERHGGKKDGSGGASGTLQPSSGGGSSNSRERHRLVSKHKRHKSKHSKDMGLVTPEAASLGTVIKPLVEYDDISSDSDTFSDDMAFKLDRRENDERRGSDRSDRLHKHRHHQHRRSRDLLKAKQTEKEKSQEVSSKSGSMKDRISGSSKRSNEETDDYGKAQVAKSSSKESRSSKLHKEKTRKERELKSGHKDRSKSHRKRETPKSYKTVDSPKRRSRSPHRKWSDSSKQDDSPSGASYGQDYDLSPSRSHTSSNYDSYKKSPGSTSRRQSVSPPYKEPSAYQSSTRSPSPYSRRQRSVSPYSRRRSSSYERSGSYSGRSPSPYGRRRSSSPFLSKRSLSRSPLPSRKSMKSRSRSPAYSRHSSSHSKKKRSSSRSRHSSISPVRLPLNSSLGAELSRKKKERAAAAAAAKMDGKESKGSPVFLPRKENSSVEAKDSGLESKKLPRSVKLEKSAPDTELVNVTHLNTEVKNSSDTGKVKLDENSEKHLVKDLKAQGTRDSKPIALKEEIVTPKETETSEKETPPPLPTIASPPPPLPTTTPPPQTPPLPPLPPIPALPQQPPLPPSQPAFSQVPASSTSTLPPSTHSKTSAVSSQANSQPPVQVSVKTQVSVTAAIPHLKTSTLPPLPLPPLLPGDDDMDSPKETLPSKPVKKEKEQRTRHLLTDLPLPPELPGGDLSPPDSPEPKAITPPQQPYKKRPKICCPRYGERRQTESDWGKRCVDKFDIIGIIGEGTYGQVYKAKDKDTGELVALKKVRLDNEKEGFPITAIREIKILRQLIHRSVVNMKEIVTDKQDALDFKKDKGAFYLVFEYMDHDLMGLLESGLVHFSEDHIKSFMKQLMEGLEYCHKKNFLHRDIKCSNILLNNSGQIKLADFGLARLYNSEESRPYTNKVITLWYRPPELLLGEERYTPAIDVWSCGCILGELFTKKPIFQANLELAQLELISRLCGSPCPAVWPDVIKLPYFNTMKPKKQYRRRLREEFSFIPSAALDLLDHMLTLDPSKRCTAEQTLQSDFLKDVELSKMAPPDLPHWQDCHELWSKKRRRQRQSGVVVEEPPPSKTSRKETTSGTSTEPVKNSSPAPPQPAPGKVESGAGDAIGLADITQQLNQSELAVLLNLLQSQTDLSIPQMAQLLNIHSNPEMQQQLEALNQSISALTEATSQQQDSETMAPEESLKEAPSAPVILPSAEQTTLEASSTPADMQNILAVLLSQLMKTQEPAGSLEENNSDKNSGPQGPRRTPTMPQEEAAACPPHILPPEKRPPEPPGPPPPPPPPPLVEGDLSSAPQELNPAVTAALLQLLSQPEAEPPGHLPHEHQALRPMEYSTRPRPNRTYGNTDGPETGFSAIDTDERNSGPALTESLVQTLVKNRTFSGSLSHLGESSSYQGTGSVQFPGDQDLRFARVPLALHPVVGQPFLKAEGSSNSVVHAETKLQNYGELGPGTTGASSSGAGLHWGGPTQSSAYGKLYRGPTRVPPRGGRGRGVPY
Chain of Mitogen-activated protein kinase 8 (P45983 whole entry): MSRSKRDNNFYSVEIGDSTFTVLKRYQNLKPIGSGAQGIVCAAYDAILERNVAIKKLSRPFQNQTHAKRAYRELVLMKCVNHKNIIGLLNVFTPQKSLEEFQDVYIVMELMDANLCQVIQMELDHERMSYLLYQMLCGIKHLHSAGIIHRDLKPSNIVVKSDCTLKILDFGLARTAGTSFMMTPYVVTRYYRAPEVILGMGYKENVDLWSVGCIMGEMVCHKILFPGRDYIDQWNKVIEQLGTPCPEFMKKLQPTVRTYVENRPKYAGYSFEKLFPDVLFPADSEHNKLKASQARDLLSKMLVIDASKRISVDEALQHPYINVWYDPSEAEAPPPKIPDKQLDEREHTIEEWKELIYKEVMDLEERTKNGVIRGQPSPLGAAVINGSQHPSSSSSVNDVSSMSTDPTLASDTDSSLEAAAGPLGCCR
Chain of RAC-gamma serine/threonine-protein kinase (Q9Y243 whole entry): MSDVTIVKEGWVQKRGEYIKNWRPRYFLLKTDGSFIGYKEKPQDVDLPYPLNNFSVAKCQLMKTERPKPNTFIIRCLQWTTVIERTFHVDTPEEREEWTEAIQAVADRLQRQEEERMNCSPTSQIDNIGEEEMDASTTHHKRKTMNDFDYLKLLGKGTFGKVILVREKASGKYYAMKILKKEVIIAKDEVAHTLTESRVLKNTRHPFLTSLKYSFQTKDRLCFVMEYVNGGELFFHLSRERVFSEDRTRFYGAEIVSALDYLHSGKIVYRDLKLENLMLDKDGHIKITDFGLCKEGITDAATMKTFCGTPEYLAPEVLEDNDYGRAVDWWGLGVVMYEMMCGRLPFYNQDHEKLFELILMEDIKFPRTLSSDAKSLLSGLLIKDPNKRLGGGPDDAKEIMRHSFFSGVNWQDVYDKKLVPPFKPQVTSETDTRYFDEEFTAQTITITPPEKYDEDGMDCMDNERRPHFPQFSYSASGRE
Chain of Mitogen-activated protein kinase 7 (Q13164 whole entry): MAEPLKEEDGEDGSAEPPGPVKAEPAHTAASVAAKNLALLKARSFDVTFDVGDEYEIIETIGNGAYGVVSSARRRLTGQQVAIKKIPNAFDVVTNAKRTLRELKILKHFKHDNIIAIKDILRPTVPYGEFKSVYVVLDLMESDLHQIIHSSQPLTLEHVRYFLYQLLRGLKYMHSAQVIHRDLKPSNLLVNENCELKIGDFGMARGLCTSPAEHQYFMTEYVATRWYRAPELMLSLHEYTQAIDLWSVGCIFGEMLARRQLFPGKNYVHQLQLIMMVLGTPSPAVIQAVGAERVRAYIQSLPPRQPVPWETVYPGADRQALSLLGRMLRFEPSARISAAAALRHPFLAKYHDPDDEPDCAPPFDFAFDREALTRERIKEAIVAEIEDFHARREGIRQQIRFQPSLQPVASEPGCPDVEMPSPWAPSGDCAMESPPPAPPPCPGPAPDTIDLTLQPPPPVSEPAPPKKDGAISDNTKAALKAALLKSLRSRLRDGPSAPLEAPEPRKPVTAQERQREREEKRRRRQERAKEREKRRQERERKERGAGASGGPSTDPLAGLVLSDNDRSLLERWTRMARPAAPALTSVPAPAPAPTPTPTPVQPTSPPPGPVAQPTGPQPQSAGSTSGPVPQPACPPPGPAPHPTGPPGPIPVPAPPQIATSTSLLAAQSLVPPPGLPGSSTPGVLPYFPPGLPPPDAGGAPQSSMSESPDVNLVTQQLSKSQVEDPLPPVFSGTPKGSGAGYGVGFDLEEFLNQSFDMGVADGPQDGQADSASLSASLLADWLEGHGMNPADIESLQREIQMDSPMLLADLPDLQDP
Chain of Dual specificity mitogen-activated protein kinase kinase 2 (P36507 whole entry): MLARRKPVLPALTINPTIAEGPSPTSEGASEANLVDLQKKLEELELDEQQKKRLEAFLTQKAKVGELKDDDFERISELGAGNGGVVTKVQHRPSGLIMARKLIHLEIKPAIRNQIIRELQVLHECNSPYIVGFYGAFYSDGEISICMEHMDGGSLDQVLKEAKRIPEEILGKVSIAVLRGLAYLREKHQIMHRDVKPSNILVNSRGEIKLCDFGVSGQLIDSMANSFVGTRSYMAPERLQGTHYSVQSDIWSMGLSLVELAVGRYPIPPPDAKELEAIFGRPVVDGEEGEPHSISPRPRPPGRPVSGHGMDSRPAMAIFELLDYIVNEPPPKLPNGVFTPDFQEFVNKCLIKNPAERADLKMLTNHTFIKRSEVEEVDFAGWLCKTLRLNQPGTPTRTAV

| Kd [1] | Kd [3] | Kd [4] | Kd [5] | Kd [6] | Kd [7] | Kd (Obg-like ATPase 1) | Kd [8] | Kd [9] | SMILES | Kd [2] |
| --- | --- | --- | --- | --- | --- | --- | --- | --- | --- | --- |
| > 30 µM (inactive) | > 30 µM (inactive) | > 30 µM (inactive) | > 30 µM (inactive) | > 30 µM (inactive) | > 30 µM (inactive) | > 30 µM (inactive) | > 30 µM (inactive) | > 30 µM (inactive) | COc1cc2ncnc(Nc3ccc(O)cc3)c2cc1OC [WHI-P131] | > 30 µM (inactive) |
| > 30 µM (inactive) | > 30 µM (inactive) | > 30 µM (inactive) | > 30 µM (inactive) | > 30 µM (inactive) | > 30 µM (inactive) | > 30 µM (inactive) | > 30 µM (inactive) | > 30 µM (inactive) | CCOc1ccn(-c2ccc(F)cc2)c(=O)c1C(=O)Nc1ccc(Oc2ccnc(N)c2Cl)c(F)c1 [BMS-777607] | > 30 µM (inactive) |
| > 30 µM (inactive) | > 30 µM (inactive) | > 30 µM (inactive) | > 30 µM (inactive) | > 30 µM (inactive) | > 30 µM (inactive) | > 30 µM (inactive) | > 30 µM (inactive) | > 30 µM (inactive) | Cc1ccc(C(=O)Nc2ccc(Oc3cc4cnn(C)c4cc3-c3cn[nH]c3)c(F)c2)c(=O)n1-c1ccc(F)cc1 [MERESTINIB] | > 30 µM (inactive) |
| > 30 µM (inactive) | > 30 µM (inactive) | > 30 µM (inactive) | > 30 µM (inactive) | > 30 µM (inactive) | > 30 µM (inactive) | > 30 µM (inactive) | > 30 µM (inactive) | > 30 µM (inactive) | COc1cccc2cc(-c3nc([C@H]4CC[C@H](C(=O)O)CC4)n4ncnc(N)c34)[nH]c12 [OSI-027] | > 30 µM (inactive) |
| > 30 µM (inactive) | > 30 µM (inactive) | > 30 µM (inactive) | > 30 µM (inactive) | > 30 µM (inactive) | > 30 µM (inactive) | > 30 µM (inactive) | > 30 µM (inactive) | > 30 µM (inactive) | NC(=O)c1ccc(N(C(N)=O)c2c(F)cccc2F)nc1-c1ccc(F)cc1F [VX-702] | > 30 µM (inactive) |
| 0.636 µM (active) | > 30 µM (inactive) | 0.056 µM (active) | > 30 µM (inactive) | > 30 µM (inactive) | > 30 µM (inactive) | > 30 µM (inactive) | > 30 µM (inactive) | > 30 µM (inactive) | c1cc(OCCN2CCCCC2)cc(-c2n[nH]c3ccc(-c4nc[nH]n4)cc23)c1 [CC-401] | > 30 µM (inactive) |

| SMILES | Kd [1] | Kd [3] | Kd [4] | Kd [5] | Kd [6] | Kd [7] | Kd (Obg-like ATPase 1) | Kd [8] | Kd [9] | Kd [2] |
| --- | --- | --- | --- | --- | --- | --- | --- | --- | --- | --- |
| Cn1cc(-c2[nH]c3cc(NC(=O)[C@H](N)C4CCCCC4)cc4c3c2C=NNC4=O)cn1 | > 30 µM (inactive) | > 30 µM (inactive) | > 30 µM (inactive) | > 30 µM (inactive) | 3.21 µM (active) | > 30 µM (inactive) | > 30 µM (inactive) | > 30 µM (inactive) | > 30 µM (inactive) | > 30 µM (inactive) |
| C=CC(=O)Nc1cc(Nc2nccc(-c3cn(C)c4ccccc34)n2)c(OC)cc1N(C)CCN(C)C [OSIMERTINIB] | > 30 µM (inactive) | > 30 µM (inactive) | > 30 µM (inactive) | > 30 µM (inactive) | > 30 µM (inactive) | 0.012 µM | > 30 µM (inactive) | > 30 µM (inactive) | > 30 µM (inactive) | > 30 µM (inactive) |
| CNC(=O)c1ccc(Nc2ncc(C(F)(F)F)c(NCc3nccnc3N(C)S(C)(=O)=O)n2)cc1 [DEFACTINIB] | > 30 µM (inactive) | 0.73 µM (active) | > 30 µM (inactive) | > 30 µM (inactive) | > 30 µM (inactive) | > 30 µM (inactive) | > 30 µM (inactive) | > 30 µM (inactive) | > 30 µM (inactive) | > 30 µM (inactive) |
